Assay results published in US20250277012A1 (Protagonist Therapeutics, Inc., priority 2021, published 2025).
Like-named read-outs stand apart in the source and are kept apart here. Starred links: 1 amine or outer side, 2 acyl side, 3 side chain; linkers in the order of their positions; H or OH if unused. Positions of bridges follow the written chain, without caps; N, C: chain ends. Non-standard residues stand in square brackets, D forms with d. Residues, ends and D or L forms follow the SMILES beside them. Groups on a side chain read outwards from the residue. *: point of attachment. CH3O(CH2CH2O)11CH2CH2CO = COCCOCCOCCOCCOCCOCCOCCOCCOCCOCCOCCOCCC(=O)*; X1 = C[N+](C)(CCNC(=O)CCCCCCCCCCCCCCCCC(=O)O)CC(=O)*; Nva(5-morpholino) = N[C@@H](CCCN1CCOCC1)C(=O)O; X5 = CCCCCCCCCCCCCCCC(=O)NCC[N+](C)(C)CC(=O)*; C18 diacid = O=C(O)CCCCCCCCCCCCCCCCC(=O)*; Dip = N[C@H](C(=O)O)C(c1ccccc1)c1ccccc1; γGlu = O=C(O)[C@H](CCC(=O)[*:2])N[*:1]; NHCH2CHPh2 = c1ccc(C(CN*)c2ccccc2)cc1; dNMeY = CN[C@H](Cc1ccc(O)cc1)C(=O)O; Palmitoyl = CCCCCCCCCCCCCCCC(=O)*; 3Pal = N[C@@H](Cc1cccnc1)C(=O)O; β3hF = N[C@H](CC(=O)O)Cc1ccccc1; Aad = N[C@@H](CCCC(=O)O)C(=O)O; NMeK = CN[C@@H](CCCCN)C(=O)O; Pen = CC(C)(S)[C@H](N)C(=O)O; Isovaleryl = CC(C)CC(=O)*; Dap = NC[C@H](N)C(=O)O; AEEA = NCCOCCOCC(=O)O; Ahx = NCCCCCC(=O)O

Columns and labels:
[1] = target: T1, ferroportin (Homo sapiens, UniProt Q9NP59); test: FPN activity assay: ferroportin-GFP internalization/degradation in HEK293 cells; type: cell-based; design: expressed in transfected cells; details: read-out: FPN IC50
T1 sequence (Q9NP59 1-571): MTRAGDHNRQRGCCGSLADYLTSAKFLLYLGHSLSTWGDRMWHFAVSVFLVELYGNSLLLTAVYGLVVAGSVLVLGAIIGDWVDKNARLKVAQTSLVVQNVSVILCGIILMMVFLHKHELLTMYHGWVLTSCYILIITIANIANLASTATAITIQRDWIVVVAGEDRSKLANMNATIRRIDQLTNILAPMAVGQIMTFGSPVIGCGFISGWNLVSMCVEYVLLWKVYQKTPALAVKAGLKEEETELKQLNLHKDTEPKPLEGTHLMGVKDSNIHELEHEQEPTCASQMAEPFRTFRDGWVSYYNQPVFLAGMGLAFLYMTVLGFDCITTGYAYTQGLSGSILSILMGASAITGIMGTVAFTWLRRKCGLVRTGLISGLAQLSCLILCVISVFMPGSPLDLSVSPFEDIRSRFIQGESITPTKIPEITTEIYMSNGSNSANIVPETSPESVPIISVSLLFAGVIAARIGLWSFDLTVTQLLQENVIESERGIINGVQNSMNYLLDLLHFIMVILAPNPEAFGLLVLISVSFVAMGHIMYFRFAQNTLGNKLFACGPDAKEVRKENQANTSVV
Procedure: Following internalization, the ferroporin protein is degraded.
A retro inverse peptide is a peptide with a reversed sequence in all D amino acids. An example is that Hy-Glu-Thr-His-NH2 becomes Hy-DHis-DThr-DGlu-NH2. The EC50 of these reference compounds for ferroportin internalization/degradation was determined according to the FPN activity assay described above. These peptides served as control standards.

[2] = target: T1, ferroportin; test: T47D cell-based ferroportin internalization assay in presence of mouse serum albumin (MSA); design: a human breast carcinoma adherent cell line which endogenously expresses ferroportin; host or cells: T47D
Procedure, shortened: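 Peptide potency for inducing ferroportin internalization was measured in T47D cells in the presence of serum albumin. Cells grown in RPMI with fetal bovine serum were seeded in 96-well plates at 80-100 k cells per well in 100 ul and rested overnight. Dilution series of test peptides were preincubated 30 min at room temperature, then added to the cells after the medium was aspirated.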

[3] = ferroportin-GFP internalization/degradation, HEK293 cells, Table 6E
[4] = T47D internalization assay in presence of mouse serum albumin (MSA), Table 6E
[5] = ferroportin-GFP HEK293 cells, at least 18 hours
[6] = T47D cells, 0.5% mouse serum albumin, 1 hr incubation
[7] = Table 6E, ferroportin-GFP internalization/degradation, at least 18 hours incubation
[8] = Table 6E, T47D internalization assay with MSA

Row | DC50 [1, 3] [nM] | IC50 [2, 4] [nM] | DC50 [1, 7] [nM] | IC50 [2, 8] [nM] | other results | SMILES
1 | 10 to 100 | 10 to 100 |  |  |  | CC(C)CC(=O)N[C@@H](CCC(=O)O)C(=O)N[C@H](C(=O)N[C@@H](Cc1c[nH]cn1)C(=O)N[C@H](C(=O)N1CCC[C@H]1C(=O)N[C@H]1CSSC[C@@H](C(=O)N(C)[C@@H](CCCCNC(=O)COCCOCCNC(=O)COCCOCCNC(=O)[C@H](CN)NC(=O)CCCCCCCCCCCCCCCCC(=O)O)C(=O)N[C@H](CC(=O)N[C@@H](CCCN2CCOCC2)C(N)=O)Cc2ccccc2)NC1=O)C(c1ccccc1)c1ccccc1)[C@@H](C)O [compound 265] (Isovaleryl-ETH[Dip]PCC[NMeK]([AEEA-AEEA-Dap-C18 diacid])[β3hF][Nva(5-morpholino)]-NH2; disulfide 6-7)
2 |  |  |  |  | DC50 [1, 5]: 10 to 100 nM; IC50 [2, 6]: 10 to 100 nM | CC[C@H](C)[C@@H]1NC(=O)[C@@H](NC(=O)[C@@H]2CCCN2C(=O)[C@@H](NC(=O)[C@H](Cc2c[nH]cn2)NC(=O)[C@@H](NC(=O)[C@H](CCC(=O)O)NC(=O)CC(C)C)[C@@H](C)O)C(c2ccccc2)c2ccccc2)CSSC[C@@H](C(N)=O)NC(=O)C[C@H](Cc2ccccc2)NC(=O)[C@H](CCCCNC(=O)COCCOCCNC(=O)COCCOCCNC(=O)CCCCCNC(=O)CCCCCCCCCCCCCCCCC(=O)O)NC1=O [Compd 23] (Isovaleryl-ETH[Dip]PCIK([AEEA-AEEA-Ahx-C18 diacid])[β3hF]C-NH2; disulfide 6-10)
3 |  |  | 10 to 100 | 100 to 500 |  | COC(=O)CCC(CCCC(C)C)C(=O)N[C@H](C(=O)N[C@@H](Cc1c[nH]cn1)C(=O)N[C@H](C(=O)N1CCC[C@H]1C(=O)N[C@H]1CSSC[C@@H](C(=O)N(C)[C@@H](CCCCNC(=O)CCCCCNC(=O)C[N+](C)(C)CCNC(=O)CCCCCCCCCCCCCCCCC(=O)O)C(=O)N[C@H](C(=O)N[C@H](CCCCN)C(N)=O)C(c2ccccc2)c2ccccc2)NC1=O)C(c1ccccc1)c1ccccc1)[C@@H](C)O (single isomer, unassigned) [compound 138]
4 |  |  |  |  | DC50 [1, 5]: > 500 nM; IC50 [2, 6]: > 500 nM | CC[C@H](C)[C@@H]1NC(=O)[C@@H](NC(=O)[C@@H]2CCCN2C(=O)[C@H](Cc2ccccc2)NC(=O)[C@H](Cc2c[nH]cn2)NC(=O)[C@@H](NC(=O)[C@H](CCC(=O)O)NC(=O)CC(C)C)[C@@H](C)O)C(C)(C)SSC(C)(C)[C@@H](C(=O)N[C@@H](CCCCN)C(N)=O)NC(=O)CNC(=O)[C@H](CCCCN)NC(=O)[C@H](CO)NC(=O)[C@H](CCCNC(=N)N)NC(=O)[C@@H]2CCCN2C(=O)[C@H](CCC(=O)O)NC(=O)[C@H](Cc2ccccc2)NC(=O)[C@H](CCCCNC(=O)COCCOCCNC(=O)COCCOCCNC(=O)CC[C@H](NC(=O)CCCCCCCCCCCCCCCCC(=O)O)C(=O)O)NC1=O [Compd 18] (Isovaleryl-ETHFP[Pen]IK([AEEA-AEEA-γGlu-C18 diacid])FEPRSKG[Pen]K-NH2; disulfide 6-16)
5 |  |  | 10 to 100 | 1 to 10 |  | CCCCCCCCCCCCCCCC(=O)NCCCCCC(=O)NCCCC[C@@H](C(=O)NCC(c1ccccc1)c1ccccc1)N(C)C(=O)[C@@H]1CSSC[C@H](NC(=O)[C@@H]2CCCN2C(=O)[C@@H](NC(=O)[C@H](Cc2cnc[nH]2)NC(=O)[C@@H](NC(=O)[C@H](CCC(=O)O)NC(=O)CC(C)C)[C@@H](C)O)C(c2ccccc2)c2ccccc2)C(=O)N1 [compound 163] (Isovaleryl-ETH[Dip]PCC[NMeK]([Ahx-Palmitoyl])-NHCH2CHPh2; disulfide 6-7)
6 |  |  | 10 to 100 | 1 to 10 |  | CCCCCCCCCCCCCCCC(=O)N[C@@H](CCC(=O)NCCCC[C@@H](C(=O)N[C@H](CC(=O)N[C@H](CCCCNC(=O)CCOCCOCCOCCOCCOCCOCCOCCOCCOCCOCCOCCOC)C(N)=O)Cc1ccccc1)N(C)C(=O)[C@@H]1CSSC[C@H](NC(=O)[C@@H]2CCCN2C(=O)[C@@H](NC(=O)[C@H](Cc2cnc[nH]2)NC(=O)[C@@H](NC(=O)[C@H](CCC(=O)O)NC(=O)CC(C)C)[C@@H](C)O)C(c2ccccc2)c2ccccc2)C(=O)N1)C(=O)O [compound 222] (Isovaleryl-ETH[Dip]PCC[NMeK]([γGlu-Palmitoyl])[β3hF][dK](CH3O(CH2CH2O)11CH2CH2CO)-NH2; disulfide 6-7)
7 | 10 to 100 | 10 to 100 |  |  |  | COC(=O)CC[C@H](NC(=O)CC(C)C)C(=O)N[C@H](C(=O)N[C@@H](Cc1c[nH]cn1)C(=O)N[C@H](C(=O)N1CCC[C@H]1C(=O)N[C@H]1CSSC[C@@H](C(=O)N(C)[C@@H](CCCCNC(=O)COCCOCCNC(=O)COCCOCCNC(=O)[C@H](CN)NC(=O)CCCCCCCCCCCCCCCCC(=O)O)C(=O)N[C@H](CC(=O)N[C@H](CCCCN)C(N)=O)Cc2ccccc2)NC1=O)C(c1ccccc1)c1ccccc1)[C@@H](C)O [compound 305] (Isovaleryl-E(OMe)TH[Dip]PCC[NMeK]([AEEA-AEEA-Dap-C18 diacid])[β3hF][dK]-NH2; disulfide 6-7)
8 | 10 to 100 | 10 to 100 |  |  |  | CC(C)CC(=O)N[C@@H](CCC(=O)O)C(=O)N[C@H](C(=O)N[C@@H](Cc1c[nH]cn1)C(=O)N[C@H](C(=O)N1CCC[C@H]1C(=O)N[C@H]1CSSC[C@@H](C(=O)N[C@@H](CCCCNC(=O)CCCCCNC(=O)C[N+](C)(C)CCNC(=O)CCCCCCCCCCCCCCCCC(=O)O)C(=O)N[C@H](CC(=O)N[C@H](CCCCN)C(N)=O)Cc2ccccc2)NC1=O)C(c1ccccc1)c1ccccc1)[C@@H](C)O [compound 312] (Isovaleryl-ETH[Dip]PCCK([Ahx-X1])[β3hF][dK]-NH2; disulfide 6-7)
9 |  |  | 1 to 10 | 1 to 10 |  | CCCCCCCCCCCCCCCC(=O)NCCCCCC(=O)NCCCC[C@@H](C(=O)N[C@H](C(=O)N[C@H](CCCCN)C(N)=O)C(c1ccccc1)c1ccccc1)N(C)C(=O)[C@@H]1CSSC[C@H](NC(=O)[C@@H]2CCCN2C(=O)[C@@H](NC(=O)[C@H](Cc2cnc[nH]2)NC(=O)[C@@H](NC(=O)[C@H](CCC(=O)O)NC(=O)CC(C)C)[C@@H](C)O)C(c2ccccc2)c2ccccc2)C(=O)N1 [compound 196] (Isovaleryl-ETH[Dip]PCC[NMeK]([Ahx-Palmitoyl])[Dip][dK]-NH2; disulfide 6-7)
10 | 10 to 100 | 10 to 100 |  |  |  | CC(C)CC(=O)N[C@@H](CCCC(=O)O)C(=O)N[C@H](C(=O)N[C@@H](Cc1cccnc1)C(=O)N[C@H](C(=O)N1CCC[C@H]1C(=O)N[C@H]1CSSC[C@@H](C(=O)N(C)[C@@H](CCCCNC(=O)COCCOCCNC(=O)COCCOCCNC(=O)[C@H](CN)NC(=O)CCCCCCCCCCCCCCCCC(=O)O)C(=O)N[C@H](C(=O)N[C@H](CCCCN)C(N)=O)C(c2ccccc2)c2ccccc2)NC1=O)C(c1ccccc1)c1ccccc1)[C@@H](C)O [compound 242] (Isovaleryl-[Aad]T[3Pal][Dip]PCC[NMeK]([AEEA-AEEA-Dap-C18 diacid])[Dip][dK]-NH2; disulfide 6-7)
11 | 10 to 100 | 10 to 100 |  |  |  | CC(C)CC(=O)N[C@@H](CCC(=O)O)C(=O)N[C@H](C(=O)N[C@@H](Cc1c[nH]cn1)C(=O)N[C@H](C(=O)N1CCC[C@H]1C(=O)N[C@H]1CSSC[C@@H](C(=O)N(C)[C@@H](CCCCNC(=O)COCCOCCNC(=O)COCCOCCNC(=O)[C@H](CN)NC(=O)CCCCCCCCCCCCCCCCC(=O)O)C(=O)N[C@H](CC(=O)N[C@H](CCCCN)C(=O)N(C)[C@H](Cc2ccc(O)cc2)C(N)=O)Cc2ccccc2)NC1=O)C(c1ccccc1)c1ccccc1)[C@@H](C)O [compound 257] (Isovaleryl-ETH[Dip]PCC[NMeK]([AEEA-AEEA-Dap-C18 diacid])[β3hF][dK][dNMeY]-NH2; disulfide 6-7)
12 |  |  | 10 to 100 | 1 to 10 |  | CCCCCCCCCCCCCCCC(=O)NCC[N+](C)(C)CC(=O)NCCCC[C@H]1C(=O)N[C@@H](C(c2ccccc2)c2ccccc2)C(=O)N[C@@H](C(N)=O)CCCCNC(=O)CC[C@H](NC(=O)CC(C)C)C(=O)N[C@@H]([C@@H](C)O)C(=O)N[C@@H](Cc2c[nH]cn2)C(=O)N[C@@H](C(c2ccccc2)c2ccccc2)C(=O)N2CCC[C@H]2C(=O)N[C@H]2CSSC[C@H](NC2=O)C(=O)N1C [compound 143] (Isovaleryl-ETH[Dip]PCC[NMeK](X5)[Dip][dK]-NH2; lactam 1-10; disulfide 6-7)
13 | 10 to 100 | 10 to 100 |  |  |  | CC(C)CC(=O)N[C@@H](CCC(=O)O)C(=O)N[C@H](C(=O)N[C@@H](Cc1c[nH]cn1)C(=O)N[C@H](C(=O)N1CCC[C@H]1C(=O)N[C@H]1CSSC[C@@H](C(=O)N(C)[C@@H](CCCCNC(=O)COCCOCCNC(=O)COCCOCCNC(=O)[C@H](CN)NC(=O)CCCCCCCCCCCCCCCCC(=O)O)C(N)=O)NC1=O)C(c1ccccc1)c1ccccc1)[C@@H](C)O [compound 294] (Isovaleryl-ETH[Dip]PCC[NMeK]([AEEA-AEEA-Dap-C18 diacid])-NH2; disulfide 6-7)
